Test results reported in patent US20230212152A1, “INHIBITORS OF CYSTEINE PROTEASES AND METHODS OF USE THEREOF” (priority 2020, published 2023).
Like-named read-outs stand apart in the source and are kept apart here.

What was measured:
[1] = biological target: T1, 229E Mpro (Human coronavirus 229E, UniProt P0C6X1); assay: 229E Mpro assay (Table 3); format: biochemical, HCoV 229E
T1 construct: 229E Mpro
Experimental: Compounds are assayed using standard methods to assess compound activity and IC50. […] The assay buffer contains 20 mM of Tris-HCl (pH 7.3), 100 mM of NaCl, 1 mM of EDTA, 5 mM of TCEP and 0.1% BSA.

[2] = biological target: SARS-CoV2 Mpro (Severe acute respiratory syndrome coronavirus 2, UniProt P0DTD1); assay: SARS-CoV2 Mpro enzymatic assay; format: biochemical; conditions: 25 nM Mpro, 25 μM substrate

T1 sequence (P0C6X1 2966-3267): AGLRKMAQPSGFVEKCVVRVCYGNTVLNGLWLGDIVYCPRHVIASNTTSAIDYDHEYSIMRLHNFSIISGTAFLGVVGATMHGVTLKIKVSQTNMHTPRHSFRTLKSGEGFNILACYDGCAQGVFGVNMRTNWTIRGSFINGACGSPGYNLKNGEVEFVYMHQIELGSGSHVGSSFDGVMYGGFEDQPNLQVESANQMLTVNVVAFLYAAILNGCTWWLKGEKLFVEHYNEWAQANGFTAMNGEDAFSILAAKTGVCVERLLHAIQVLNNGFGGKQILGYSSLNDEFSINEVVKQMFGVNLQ

SMILES	EC50 ([1]; read-out: 229E Mpro EC50) [nM]	EC50 ([1]; 229E Mpro EC50) [nM]	IC50 [2] [nM]
COc1cccc2[nH]c(C(=O)N[C@@H](CC3CC3)C(=O)N[C@H](C#N)C[C@@H]3CCCNC3=O)cc12 (single isomer, unassigned) [271A (Isomer 1)]	> 30000	–	–
COc1cccc2[nH]c(C(=O)N3CC4(CCC4)CC3C(=O)N[C@H](C#N)C[C@@H]3CCNC3=O)cc12 (single isomer, unassigned) [399A (Isomer 2)]	10000 to 30000	–	–
Cc1ccn([C@H](CC2CC2)C(=O)N[C@H](C#N)C[C@@H]2CCNC2=O)c(=O)c1NCC(F)(F)F (single isomer, unassigned) [451 (Isomer 1)]	> 30000	–	–
Cc1ccn(C(CC2CC2)C(=O)N[C@H](C#N)C[C@@H]2CCNC2=O)c(=O)c1NCC(F)(F)F (single isomer, unassigned) [451 (Isomer 2)]	–	10000 to 30000	–
N#CC(CC1CCNC1=O)NC(=O)C1CCc2ccc(NCC(=O)Oc3ccccc3)c(=O)n21 (single isomer, unassigned) [483 (Isomer 2)]	–	> 30000	–
COc1cccc2[nH]c(C(=O)N[C@@H](CC3CC3)C(=O)N[C@H](C#N)C[C@@H]3CCCNC3=O)cc12 (single isomer, unassigned) [491A (Isomer 1)]	–	> 30000	–
COc1cccc2[nH]c(C(=O)N3C[C@H]4CC[C@H]4[C@@H]3C(=O)N[C@H](C#N)C[C@@H]3CCNC3=O)cc12 (single isomer, unassigned) [547 (Isomer 2)]	< 2000	–	–
Cc1ccn([C@H](CC2CC2)C(=O)N[C@H](C#N)C[C@@H]2CCNC2=O)c(=O)c1NC(=O)OC(C)(C)C (single isomer, unassigned) [591 (Isomer 1)]	> 30000	–	–
COc1cccc2[nH]c(C(=O)N3CC4(CCCCC4)CC3C(=O)N[C@H](C#N)C[C@@H]3CCCNC3=O)cc12 (single isomer, unassigned) [603a (Isomer 2)]	> 30000	–	–
COc1cc(Cl)c2[nH]c(C(=O)N3CC4(CCCCC4)CC3C(=O)N[C@H](C#N)C[C@@H]3CCNC3=O)cc2c1 (single isomer, unassigned) [896 (Isomer 1)]	< 2000	–	< 2000
COc1cc(Cl)c2[nH]c(C(=O)N3CC4(CCCCC4)CC3C(=O)N[C@H](C#N)C[C@@H]3CCNC3=O)cc2c1 (single isomer, unassigned) [896 (Isomer 2)]	> 30000	–	> 30000
CC1(C)CC(C[C@@H](C#N)NC(=O)[C@H](CC2CC2)NC(=O)c2cc3cccc(Cl)c3[nH]2)C(=O)N1 (single isomer, unassigned) [1053 (Isomer 2)]	10000 to 30000	–	–
CC(C)(C)[C@H](NC(=O)C(F)(F)F)C(=O)N1CC2(CCC2)CC1C(=O)N[C@H](C#N)C[C@@H]1CC2(CC2)NC1=O (single isomer, unassigned) [3039a (Isomer 1)]	–	2000 to 10000	< 2000
CC1(C)C[C@@H](C[C@@H](C#N)NC(=O)C2CC3(CCC3)CN2C(=O)[C@@H](NC(=O)C(F)(F)F)C(C)(C)C)C(=O)N1 (single isomer, unassigned) [3071a (Isomer 1)]	–	2000 to 10000	< 2000
CC1(C)C[C@@H](C[C@@H](C#N)NC(=O)C2CC3(CCC3)CN2C(=O)[C@@H](NC(=O)C(F)(F)F)C(C)(C)C)C(=O)N1 (single isomer, unassigned) [3071a (Isomer 2)]	–	> 30000	> 30000
CC1(C)C[C@@H](C[C@@H](C#N)NC(=O)[C@@H]2[C@@H]3[C@H](CN2C(=O)[C@@H](NC(=O)C(F)(F)F)C(C)(C)C)C3(C)C)C(=O)N1 (single isomer, unassigned) [3075 (Isomer 1)]	–	> 30000	< 2000
CC1(C)C[C@@H](C[C@@H](C#N)NC(=O)[C@@H]2[C@@H]3[C@H](CN2C(=O)[C@@H](NC(=O)C(F)(F)F)C(C)(C)C)C3(C)C)C(=O)N1 (single isomer, unassigned) [3075 (Isomer 2)]	–	10000 to 30000	< 2000

SMILES	EC50 ([1]; read-out: 229E Mpro EC50) [nM]	EC50 ([1]; 229E Mpro EC50) [nM]	IC50 [2] [nM]
COc1cccc2[nH]c(C(=O)N[C@H](CC3CC3)C(=O)N[C@H](C#N)C[C@@H]3CCCNC3=O)cc12 (single isomer, unassigned; isomer 2) [491A (Isomer 2)]	< 2000	–	–
COc1cccc2[nH]c(C(=O)N3C[C@H](C4CCCCC4)C[C@H]3C(=O)N[C@H](C#N)C[C@@H]3CCNC3=O)cc12 [Compound 167, (2S,4S)-N-((S)-1-cyano-2-((S)-2-oxopyrrolidin-3-yl)ethyl)-4-cyclohexyl-1-(4-methoxy-1H-indole-2-carbonyl)pyrrolidine-2-carboxamide]	2000 to 10000	–	–
N#C[C@H](C[C@@H]1CCNC1=O)NC(=O)[C@@H]1CS[C@H]2CC[C@H](NCC(F)(F)F)C(=O)N21 [Compound 455, (3R,6S,8aS)-N-[(1S)-1-cyano-2-[(3S)-2-oxopyrrolidin-3-yl]ethyl]-5-oxo-6-(2,2,2-trifluoroethylamino)-2,3,6,7,8,8a-hexahydrothiazolo[3,2-a]pyridine-3-carboxamide]	> 30000	–	–
N#C[C@H](C[C@@H]1CCNC1=O)NC(=O)[C@@H]1CCc2ccc(NCC(=O)O)c(=O)n21 [Compound 501, 2-[[(3S)-3-[[(1S)-1-cyano-2-[(3S)-2-oxopyrrolidin-3-yl]ethyl]carbamoyl]-5-oxo-2,3-dihydro-1H-indolizin-6-yl]amino]acetic acid]	> 30000	–	–
CC(C)(C)C[C@H](NC(=O)[C@@H](NC(=O)C(F)(F)F)C(C)(C)C)C(=O)N[C@H](C#N)C[C@@H]1CC2(CC2)NC1=O [Compound 3037]	–	< 2000	< 2000
CC(C)(C)[C@H](NC(=O)C(F)(F)F)C(=O)N1CC2(CCC2)CC1C(=O)N[C@H](C#N)C[C@@H]1CC2(CC2)NC1=O (stereo partly drawn) [Compound 3039b]	–	< 2000	< 2000
CC(C)(C)[C@H](NC(=O)C(F)(F)F)C(=O)N1CC2(CCCCC2)C[C@H]1C(=O)N[C@H](C#N)C[C@@H]1CC2(CC2)NC1=O [Compound 3041]	–	< 2000	< 2000
CC(C)(C)[C@H](NC(=O)C(F)(F)F)C(=O)N1C[C@H]2[C@@H]([C@H]1C(=O)N[C@H](C#N)C[C@@H]1CC3(CC3)NC1=O)C2(C)C [Compound 3043]	–	< 2000	< 2000
CC(C)(C)[C@H](NC(=O)C(F)(F)F)C(=O)N[C@@H](CC1CC1(F)F)C(=O)N[C@H](C#N)C[C@@H]1CC2(CC2)NC1=O (stereo partly drawn) [Compound 3045]	–	< 2000	< 2000
CC1(C)C[C@@H](C[C@@H](C#N)NC(=O)[C@H](CC2CC2)NC(=O)[C@@H](NC(=O)C(F)(F)F)C(C)(C)C)C(=O)N1 [Compound 3065, (S)-N-((S)-1-(((S)-1-cyano-2-((R)-5,5-dimethyl-2-oxopyrrolidin-3-yl)ethyl)amino)-3-cyclopropyl-1-oxopropan-2-yl)-3,3-dimethyl-2-(2,2,2-trifluoroacetamido)butanamide]	–	> 30000	< 2000
CC(C)(C)C[C@H](NC(=O)[C@@H](NC(=O)C(F)(F)F)C(C)(C)C)C(=O)N[C@H](C#N)C[C@@H]1CC(C)(C)NC1=O [Compound 3069, (S)-N-((S)-1-cyano-2-((R)-5,5-dimethyl-2-oxopyrrolidin-3-yl)ethyl)-2-((S)-3,3-dimethyl-2-(2,2,2-trifluoroacetamido)butanamido)-4,4-dimethylpentanamide]	–	> 30000	< 2000
CC1(C)C[C@@H](C[C@@H](C#N)NC(=O)[C@@H]2CC3(CCCCC3)CN2C(=O)[C@@H](NC(=O)C(F)(F)F)C(C)(C)C)C(=O)N1 [Compound 3073, (3S)-N-[(1S)-1-cyano-2-[(3R)-5,5-dimethyl-2-oxo-pyrrolidin-3-yl]ethyl]-2-[(2S)-3,3-dimethyl-2-[(2,2,2-trifluoroacetyl)amino]butanoyl]-2-azaspiro[4.5]decane-3-carboxamide]	–	2000 to 10000	< 2000
CC1(C)C[C@@H](C[C@@H](C#N)NC(=O)[C@@H]2[C@@H]3[C@H](CN2C(=O)[C@@H](NC(=O)C(F)(F)F)C(C)(C)C)C3(C)C)C(=O)N1 [Compound 3075, (1R,2S,5S)-N-((S)-1-cyano-2-((R)-5,5-dimethyl-2-oxopyrrolidin-3-yl)ethyl)-3-((S)-3,3-dimethyl-2-(2,2,2-trifluoroacetamido)butanoyl)-6,6-dimethyl-3-azabicyclo[3.1.0]hexane-2-carboxamide]	–	10000 to 30000	< 2000
CC(C)(C)C[C@H](NC(=O)[C@@H](NC(=O)C(F)(F)F)C(C)(C)C)C(=O)N[C@H](C#N)C[C@@H]1CCCNC1=O [Compound 3129, (S)-N-((S)-1-cyano-2-((S)-2-oxopiperidin-3-yl)ethyl)-2-((S)-3,3-dimethyl-2-(2,2,2-trifluoroacetamido)butanamido)-4,4-dimethylpentanamide]	–	< 2000	< 2000
CN(C(=O)[C@@H](NC(=O)C(F)(F)F)C(C)(C)C)[C@@H](CC1CC1)C(=O)N[C@H](C#N)C[C@@H]1CCCNC1=O [Compound 3131]	–	10000 to 30000	< 2000
CC(C)(C)[C@H](NC(=O)C(F)(F)F)C(=O)N1C[C@H]2[C@@H]([C@H]1C(=O)N[C@H](C#N)C[C@@H]1CCCNC1=O)C2(C)C [Compound 3133, (1R,2S,5S)-N-[(1S)-1-cyano-2-[(3S)-2-oxo-3-piperidyl]ethyl]-3-[(2S)-3,3-dimethyl-2-[(2,2,2-trifluoroacetyl)amino]butanoyl]-6,6-dimethyl-3-azabicyclo[3.1.0]hexane-2-carboxamide]	–	< 2000	< 2000
CC(C)(C)[C@H](NC(=O)C(F)(F)F)C(=O)N1C[Si](C)(C)C[C@H]1C(=O)N[C@H](C#N)C[C@@H]1CC2(CC2)NC1=O [Compound 3135]	< 2000	–	< 2000
